Consider 28 compounds from US20120065187A1 (ALCON RESEARCH, LTD, priority 2008, published 2012).

In one experiment the target is T1, human H1 (Homo sapiens, UniProt P35367).
T1 construct: host or cells: CHO-K1
In words: In vitro histamine receptor cell-based assay (aequorin bioluminescence), H1 antagonism. As to conditions: CHO-K1 cells expressing human H1 and aequorin; histamine at EC80; read-out: H1 Antagonist EC50. As to the method: (§1) The cell-based assays utilize an aequorin dependent bioluminescence signal. Doubly-transfected, stable CHO-K1 cell lines expressing human H1 or H4, mitochondrion-targeted aequorin, and (H4 only) human G protein Gα16 are obtained from Perkin-Elmer. Cells are maintained in F12 (Ham's) growth medium, containing 10% (vol./vol.) fetal bovine serum, penicillin (100 IU/mL), streptomycin (0.1 mg/mL), zeocin (0.25 mg/mL) and geneticin (0.40 mg/mL). Cell media components are from Invitrogen, Inc. One day prior to assay, the growth medium is replaced with the same, excluding zeocin and geneticin.
(§2) For assay preparation, growth medium is aspirated, and cells are rinsed with calcium-free, magnesium-free phosphate-buffered saline, followed by two to three minute incubation in Versene (Invitrogen, Inc.) at 37° C. Assay medium (DMEM:F12 [50:50], phenol-red free, containing 1 mg/mL protease-free bovine serum albumin) is added to collect the released cells, which are then centrifuged. The cell pellet is re-suspended in assay medium, centrifuged once more, and re-suspended in assay medium to a final density of 5×10^6 cells/mL. Coelenterazine-h dye (500 μM in ethanol) is added to a final concentration of 5 μM, and mixed immediately. The conical tube containing the cells is then wrapped with foil to protect the light-sensitive dye. The cells are incubated for four hours further at room temperature (approximately 21° C.) with end-over-end rotation to keep them in suspension.
(§3) Just before assay, the dye-loaded cells are diluted to 0.75×10^6 cells/mL (H1 receptor) or 1.5×10^6 cells/mL (H4 receptor) with additional assay medium. Cells are dispensed to 1536 well micro-titer plates at 3 μL/well. To assay receptor antagonism, 60 nl of 100× concentration test compounds in 100% dimethyl sulfoxide (DMSO) are dispensed to the wells, one compound per well, by passive pin transfer, and the plates are incubated for 15 minutes at room temperature. Assay plates are then transferred to a Lumilux bioluminescence plate reader (Perkin-Elmer) equipped with an automated 1536 disposable tip pipette. The pipette dispenses 3 μL/well of agonist (histamine, at twice the final concentration, where final concentration is a previously determined EC80) in assay medium, with concurrent bioluminescence detection. Agonist activity of test compounds is excluded by separate assays that measure response to test compounds immediately, without added histamine agonist.
(§4) CCD image capture on the Lumilux includes a 5 second baseline read prior to agonist addition, and generally a 40 second read per plate after agonist addition. A decrease in bioluminescence signal (measured either as area-under-the-curve, or maximum signal amplitude minus minimum signal amplitude) correlates with receptor antagonism in a dose dependent manner. The negative control is DMSO lacking any test compound. For antagonist assays, the positive controls are diphenhydramine (2-Diphenylmethoxy-N,N-dimethylethylamine, 10 μM final concentration, H1 receptor) or JNJ7777120 (1-[(5-Chloro-1H-indol-2-yl)carbonyl]-4-methyl-piperazine, 10 μM final concentration, H4 receptor). Efficacy is measured as a percentage of positive control activity.

For the next experiment, the target named is T2, human H4 (Homo sapiens, UniProt Q9H3N8).
T2 construct: host or cells: CHO-K1
T2 sequence (Q9H3N8 whole entry): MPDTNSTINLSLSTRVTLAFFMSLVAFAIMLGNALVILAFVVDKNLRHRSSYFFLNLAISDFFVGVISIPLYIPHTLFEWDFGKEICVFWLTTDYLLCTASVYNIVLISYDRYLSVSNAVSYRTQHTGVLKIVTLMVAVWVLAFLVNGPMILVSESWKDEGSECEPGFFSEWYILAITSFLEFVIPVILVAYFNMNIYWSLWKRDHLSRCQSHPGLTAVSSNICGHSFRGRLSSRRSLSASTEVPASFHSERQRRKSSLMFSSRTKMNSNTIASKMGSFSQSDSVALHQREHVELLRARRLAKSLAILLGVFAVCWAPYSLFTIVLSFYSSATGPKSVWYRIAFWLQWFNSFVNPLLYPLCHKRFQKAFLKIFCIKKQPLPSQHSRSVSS
In words: In vitro histamine receptor cell-based assay (aequorin bioluminescence), H4 antagonism. As to conditions: CHO-K1 cells expressing human H4, aequorin and Gα16; histamine at EC80; read-out: H4 Antagonist EC50. As to the method: as §1, §2
as §3, with “Assay plates are then transferred to a Lumilux bioluminescence plate reader (Perkin-Elmer) equipped with an automated 1536 disposable tip pipette.” left out
as §4

T1 sequence (P35367 whole entry): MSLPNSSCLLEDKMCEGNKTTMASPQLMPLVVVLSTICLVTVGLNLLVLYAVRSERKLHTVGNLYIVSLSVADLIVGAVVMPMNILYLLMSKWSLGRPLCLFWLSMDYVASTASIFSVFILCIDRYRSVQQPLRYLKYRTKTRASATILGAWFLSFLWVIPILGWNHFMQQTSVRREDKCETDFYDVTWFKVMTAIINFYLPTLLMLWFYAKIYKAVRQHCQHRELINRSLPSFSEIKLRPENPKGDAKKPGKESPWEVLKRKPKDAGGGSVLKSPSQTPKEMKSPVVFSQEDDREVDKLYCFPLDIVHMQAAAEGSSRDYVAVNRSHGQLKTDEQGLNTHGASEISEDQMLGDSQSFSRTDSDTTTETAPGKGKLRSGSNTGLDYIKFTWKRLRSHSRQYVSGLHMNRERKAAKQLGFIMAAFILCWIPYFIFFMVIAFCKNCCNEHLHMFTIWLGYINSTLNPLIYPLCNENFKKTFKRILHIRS

Consider `Fc1cc2c(cc1C(F)(F)F)nc(N1CCNCC1)c1nncn12` [Example 43, 8-Fluoro-4-(piperazin-1-yl)-7-(trifluoromethyl)-[1,2,4]triazolo[4,3-a]quinoxaline], for which the EC50 was above 10 µM on human H1 and below 10 µM on human H4.
The corresponding values for `CN1CCN(c2nc3cc(Cl)c(C(F)(F)F)cc3n3cnnc23)CC1` [Example 44, 7-Chloro-4-(4-methylpiperazin-1-yl)-8-(trifluoromethyl)-[1,2,4]triazolo[4,3-a]quinoxaline] are above 10 µM and below 10 µM.
The corresponding values for `CN1CCN(c2nc3cc(C(F)(F)F)c(Cl)cc3n3cnnc23)CC1` [Example 46, 8-Chloro-4-(4-methylpiperazin-1-yl)-7-(trifluoromethyl)-[1,2,4]triazolo[4,3-a]quinoxaline] are above 10 µM and below 10 µM.
Regarding `FC(F)(F)c1cc2nc(N3CCNCC3)c3nncn3c2cc1Cl` [Example 47, 8-Chloro-4-(piperazin-1-yl)-7-(trifluoromethyl)-[1,2,4]triazolo[4,3-a]quinoxaline], the figures for the EC50 at human H1 and on human H4 were above 10 µM and below 10 µM, respectively.
The corresponding values for `CN1CCN(c2nc3c(F)cc(C(F)(F)F)cc3n3cnnc23)CC1` [Example 48, 6-Fluoro-4-(4-methylpiperazin-1-yl)-8-(trifluoromethyl)-[1,2,4]triazolo[4,3-a]quinoxaline] are above 10 µM and below 10 µM.
The corresponding values for `CN1CCN(c2nc3ccc(OC(F)(F)F)cc3n3cnnc23)CC1` [Example 50, 4-(4-methylpiperazin-1-yl)-8-(trifluoromethoxy)-[1,2,4]triazolo[4,3-a]quinoxaline] are above 10 µM and below 10 µM.
The corresponding values for `FC(F)(F)Oc1ccc2nc(N3CCNCC3)c3nncn3c2c1` [Example 51, 4-(piperazin-1-yl)-8-(trifluoromethoxy)-[1,2,4]triazolo[4,3-a]quinoxaline] are above 10 µM and below 10 µM.
As to `Brc1ccc2c(c1)nc(N1CCNCC1)c1nncn12` [Example 53, 7-bromo-4-(piperazin-1-yl)-[1,2,4]triazolo[4,3-a]quinoxaline], the EC50 on human H1 and at human H4 was above 10 µM in each case.
As to `CC(C)(C)OC(=O)N1CCN(c2nc3ccc(Cl)cc3n3cnnc23)CC1` [Example 56, tert-butyl 4-(8-chloro-[1,2,4]triazolo[4,3-a]quinoxalin-4-yl)piperazine-1-carboxylate], the EC50 on human H1 and at human H4 was above 10 µM throughout.
Take `CN1CCN(c2nc3ccccc3n3cnnc23)CC1` [Example 58, 4-(4-methylpiperazin-1-yl)-[1,2,4]triazolo[4,3-a]quinoxaline]: the EC50 on human H1 was above 10 µM; at human H4 it was below 10 µM.
On to `NC1CCN(c2nc3ccc(Cl)cc3n3cnnc23)C1` (centres unmarked) [Example 59, 1-(8-chloro-[1,2,4]triazolo[4,3-a]quinoxalin-4-yl)pyrrolidin-3-amine], for which the figures for the EC50 on human H1 and on human H4 were above 10 µM and below 10 µM, respectively.
For `CNC1CCN(c2nc3ccc(Cl)cc3n3cnnc23)C1` (centres unmarked) [Example 60, 1-(8-chloro-[1,2,4]triazolo[4,3-a]quinoxalin-4-yl)-N-methylpyrrolidin-3-amine], the concentration giving a half-maximal response (EC50) was above 10 µM on human H1 and below 10 µM at human H4.
The corresponding values for `Clc1ccc2nc(N3CC4CCCNC4C3)c3nncn3c2c1` (centres unmarked) [Example 61, 8-chloro-4-(tetrahydro-1H-pyrrolo[3,4-b]pyridin-6(2H,7H,7aH)-yl)-[1,2,4]triazolo[4,3-a]quinoxaline] are above 10 µM and below 10 µM.
The corresponding values for `CN1CC2CN(c3nc4ccc(Cl)cc4n4cnnc34)CC2C1` (centres unmarked) [Example 62, 8-chloro-4-(5-methylhexahydropyrrolo[3,4-c]pyrrol-2(1H)-yl)-[1,2,4]triazolo[4,3-a]quinoxaline] are above 10 µM and below 10 µM.
The corresponding values for `NC1CN(c2nc3ccc(Cl)cc3n3cnnc23)C1` [Example 63, 1-(8-chloro-[1,2,4]triazolo[4,3-a]quinoxalin-4-yl)azetidin-3-amine] are above 10 µM and below 10 µM.
For `Clc1ccc2nc(N3CCN(C4CC4)CC3)c3nncn3c2c1` [Example 64, 8-chloro-4-(4-cyclopropylpiperazin-1-yl)-[1,2,4]triazolo[4,3-a]quinoxaline], the results for the EC50 at human H1 and on human H4 were above 10 µM and below 10 µM, respectively.
The corresponding values for `Clc1ccc2nc(N3CCN4CCCC4C3)c3nncn3c2c1` (centres unmarked) [Example 65, 8-chloro-4-(hexahydropyrrolo[1,2-a]pyrazin-2(1H)-yl)-[1,2,4]triazolo[4,3-a]quinoxaline] are above 10 µM and below 10 µM.
The corresponding values for `Clc1ccc2nc(N3CC4CC3CN4)c3nncn3c2c1` (centres unmarked) [Example 67, 4-(2,5-diazabicyclo[2.2.1]heptan-2-yl)-8-chloro-[1,2,4]triazolo[4,3-a]quinoxaline] are above 10 µM and below 10 µM.
For the compound `CN1CCCN(c2nc3ccc(Cl)cc3n3cnnc23)CC1` [Example 68, 8-chloro-4-(4-methyl-1,4-diazepan-1-yl)-[1,2,4]triazolo[4,3-a]quinoxaline], the 50% effective concentration (EC50) at human H1 is above 10 µM; on human H4, below 10 µM.
On to `Clc1ccc2nc(N3CC4CNCC4C3)c3nncn3c2c1` (centres unmarked) [Example 69, 8-chloro-4-(hexahydropyrrolo[3,4-c]pyrrol-2(1H)-yl)-[1,2,4]triazolo[4,3-a]quinoxaline], for which the 50% effective concentration (EC50) on human H1 and at human H4 was above 10 µM in each case.
With `NCCNc1nc2ccc(Cl)cc2n2cnnc12` [Example 70, N^1-(8-chloro-[1,2,4]triazolo[4,3-a]quinoxalin-4-yl)ethane-1,2-diamine], the EC50 on human H1 and on human H4 was above 10 µM in each case.
`Clc1ccc2nc(NCCN3CCOCC3)c3nncn3c2c1` [Example 71, 8-chloro-N-(2-morpholinoethyl)-[1,2,4]triazolo[4,3-a]quinoxalin-4-amine]: the EC50 on human H1 and at human H4 was above 10 µM each time.
Consider `Clc1ccc2nc(OC3CNC3)c3nncn3c2c1` [Example 72, 4-(azetidin-3-yloxy)-8-chloro-[1,2,4]triazolo[4,3-a]quinoxaline], for which the EC50 on human H1 and at human H4 was above 10 µM throughout.
As to `Clc1ccc2nc(NC3CCNCC3)c3nncn3c2c1` [Example 73, 8-chloro-N-(piperidin-4-yl)-[1,2,4]triazolo[4,3-a]quinoxalin-4-amine], the EC50 on human H1 and on human H4 was above 10 µM throughout.
In the case of `Clc1ccc2nc(OC3CCNCC3)c3nncn3c2c1` [Example 74, 8-chloro-4-(piperidin-4-yloxy)-[1,2,4]triazolo[4,3-a]quinoxaline], the 50% effective concentration (EC50) at human H1 and at human H4 was above 10 µM throughout.
Regarding `Clc1ccc2nc(OCC3CNC3)c3nncn3c2c1` [Example 75, 4-(azetidin-3-ylmethoxy)-8-chloro-[1,2,4]triazolo[4,3-a]quinoxaline], the EC50 on human H1 and at human H4 was above 10 µM each time.
For `CN1CC[C@H](COc2nc3ccc(Cl)cc3n3cnnc23)C1` [Example 76, (S)-8-chloro-4-((1-methylpyrrolidin-3-yl)methoxy)-[1,2,4]triazolo[4,3-a]quinoxaline], the EC50 at human H1 and at human H4 was above 10 µM throughout.
For the compound `CNCCN(C)c1nc2ccc(Cl)cc2n2cnnc12` [Example 77, N^1-(8-chloro-[1,2,4]triazolo[4,3-a]quinoxalin-4-yl)-N^1,N^2-dimethylethane-1,2-diamine], the EC50 at human H1 and on human H4 was above 10 µM in each case.

The term EC50 denotes the concentration at which the effect is half-maximal.
